Here are results for one compound from patent publication US11090292B2, “Compositions and methods of use of an inappetance-controlling compound” (Aratana Therapeutics, Inc., priority 2012, dated 2021).

The nature of data set [1]: Example 9: capromorelin concentration in serum. The class given is in vivo. As to the method: A four-day study was performed to further assess the pharmacokinetics of formulation 8 from Example 3 (i.e., the most “well-accepted” formulation) in cats. Moreover, the administration of formulation 8 was also analyzed to determine if administration of this formulation could induce sustained production of IGF-1 and relatively depressed, mitigated, or lower levels of cortisol. The different capromorelin-dosing regimens were also assessed for the impact on food intake and changes in body mass.
Twenty-four adult cats were divided into one of four treatment groups, with all four groups as active treatment groups. Each of the active treatment groups included 6 cats. The first group received a sterile injection of a capromorelin composition containing a 0.75 mg/kg concentration of capromorelin once per day during the four-day experiment. The second group received a once-daily sterile injection of a capromorelin composition at a concentration of 2 mg/kg. The third group received a once-daily dose of a capromorelin composition at a concentration of 2 mg/kg, via oral gavage. […]
During the seven day study period, on an at least once-daily basis, each of the cats was monitored for clinical observations, mortality, moribundity, body mass, acceptability/palatability, and food consumption. […]

Data set [2] in a line: Example 13 cat compromised kidney study: body weight and diet consumption. To be noted: subcutaneous 2 mg/kg daily for 14 days. The class given is in vivo, cats with compromised kidney function. As to the method:
The following study was undertaken to assess multiple points. First, the following experiments were conducted to determine if a formulation of capromorelin, when administered either intravenously or subcutaneously, can stimulate appetite in cats with compromised kidney function. Second, the following experiments were conducted to assess the pharmacokinetic profile of capromorelin in the serum of cats with compromised kidney function. Finally, the following experiments were conducted to determine if capromorelin accumulates in the serum after 14 days of treatment that is subcutaneously administered.
Sixteen cats with compromised kidney function were acclimatized for the following study. Animals assigned to Group 1 (n=6) received an intravenous administration of a capromorelin formulation (i.e., capromorelin in sterile water) at a dose of 0.75 mg/kg on Day 0 of the experiment. Animals assigned to Group 2 (n=6) received a subcutaneous administration of a capromorelin formulation (2.1% w/v capromorelin, 1% w/v benzyl alcohol, and citrate buffer) daily for 14 days at a dose of 2 mg/kg. Animals assigned to Group 3 (n=4) served as untreated controls. […] Diet consumption was also monitored on study days −7 until day 13 for the animals in Groups 2 and 3 only.

Data set [3] is described as follows: Example 5: capromorelin concentration in serum. The class given is in vivo, Beagle dogs. As for the experimental part:
In order to further refine the dosing regimen that would provide an appropriate blood profile of capromorelin and desired results from the perspective of increased food intake and weight gain, an additional series of experiments were conducted. In these experiments, twenty-four adult (male and female) Beagle dogs weighing approximately 9 to 13 kilograms were randomly divided into four groups. Group 1 received a placebo formulation, without any active compound, two times per day; Group 2 received a composition comprising 3 mg/kg of body weight of capromorelin one time per day; Group 3 received a composition comprising 4.5 mg/kg of body weight of capromorelin one time per day; and Group 4 received a composition comprising 3 mg/kg of body weight of capromorelin two times per day.
In particular, on the first day of dosing, Day 1, through the last day of dosing, Day 7, the compositions were orally administered (i.e., using a syringe) to the animals in a flavored formulation of the following composition: […]
In these experiments, the animals were orally administered the flavored formulation at approximately 8:00 AM and, for Group 4 only, again at 6:00 PM. The animals were fed at 10:00 AM beginning seven days prior to Day 1 and continuing for the duration of the study. The animals were offered twice the normal amount of food. Approximately two hours after the food offering, the remainder was removed and weighed to assess food intake. This restricted feeding regime was started at Day −7 to allow the animals to transition to a normal feed intake before the study was initiated. Food consumption was calculated and recorded on Days −7 through Day 7. Baseline food consumption was calculated for each individual dog as the average number of grams of food consumed on Days −3, −2, and −1. The study period food consumption was calculated for each individual dog as the average of Days 1 through 7. Body weights were collected on Days −1, 3, and 7. […]

For the compound `CN1N=C2CCN(C(=O)[C@@H](COCc3ccccc3)NC(=O)C(C)(C)N)C[C@@]2(Cc2ccccc2)C1=O.O=C(O)C(O)C(O)C(=O)O` [capromorelin], in data set [1] (oral formulations), the “levels of capromorelin in the serum” value is “relatively low levels of capromorelin in the serum”. For the same compound, the “time post administration of peak capromorelin concentration in the serum” value in data set [1] (sterile injectable formulation) was “about 0.5 h”. In addition, in data set [2], the “amount of food consumed, Group 2 versus untreated Group 3” value is recorded as “no significant difference” and the “body weights of Group 2 versus untreated Group 3” value is given as “no significant differences”. In data set [3] (Days 1 and 7, Groups 2-4), the “serum capromorelin by 8 hours” value is listed as “back to baseline levels” and the “time post administration of initial spike of serum capromorelin” value was 30 min. In data set [3] (seven days of dosing), the capromorelin accumulation result is on record as “no evidence of capromorelin accumulation”.
